Measured values taken from patent US20230210116A1, “HONEYBEE REPELLENT” (EARTH CORPORATION, priority 2020, published 2023).

Test system: honeybees
Assay: Test for Confirmation of Honeybee Repelling Effect 1, 2, 3 (feeding station with 40% sugar water)
Format: in vivo
Details: for Corrected repelling rate (%) Honeybees: Test 3, 5 mL
Text: The following were used as the test samples for Examples: 2% by weight per volume ethanol solutions of octane (a-1), tetradecane (a-2), heptadecane (a-3), nonadecane (a-4), 2-acetylfuran (b-1), 5-methyl-2-furaldehyde (b-2), furfural (b-3), furaneol (c-1), 2-acetylpyrrole (d-1), 1-benzylpyrrole (d-2), 1-octanol (e-1), 1-dodecanol (e-2), and 1-octadecanol (e-3), respectively; and 2% by weight per volume aqueous solutions of furfuryl alcohol (b-4), sotolon (c-2), and α-angelicalactone (c-3), respectively.
The following were used as the test samples for Comparative Examples: 2% by weight per volume ethanol solutions of eicosane (carbon number 20, p-1), heneicosane (carbon number 21, p-2), 2-methyloctane (branched alkane, p-3), tributyl o-acetylcitrate (p-4), and 1-methylpyrrole (p-5), respectively; and 2% by weight per volume aqueous solutions of 2-methyltetrahydrofuran-3-one (p-6) and acetic acid (p-7), respectively.
Ethanol alone and water alone were used as samples for correction.
The cotton pads 13 were impregnated with 40% sugar water (80 g), after which disposable wooden chopsticks 15 (80 mm in length) were placed over the cotton pads on the lid surface as “landing areas,” for use as “test insect (honeybee) feeding station 1” 10.
A nest box of test insects (honeybees) (1 colony: approx. 6,000 bees) was placed at the center of a glass hothouse (bottom face: 5 m×10 m, height (highest part): 3 m, temperature: 25° C.), and the aforementioned “test insect (honeybee) feeding station 1” was installed at a location 2 meters away from the nest box.
After confirming that at least five test insects (honeybees) were feeding at the above “test insect (honeybee) feeding station 1” installed in the hothouse, test 1 was conducted to measure the “approaching count (Mz)” and “landing count (My)” and calculate the “landing rate (Mx).”
Next, the “test insect (honeybee) feeding station 1” installed in the hothouse was replaced with each “test insect (honeybee) feeding station 2” which was let to stand still for 5 minutes, after which test 2 was conducted to measure the “approaching count (Nz)” and “landing count (Ny)” and calculate the “landing rate (Nx).”
Approaching count: Total number of times a honeybee has approached within 25 cm of the cotton wools at the feeding station during 5 minutes
Landing count: Total number of honeybees that have remained for at least 1 second on the cotton pads at the feeding station during 5 minutes
Landing rate (%): (Landing count/Approaching count)×100
The “repelling rate Q” and “corrected repelling rate R” were calculated from the above “landing rates” using the calculation formula below. For the “repelling rate of sample for correction” used to calculate the “corrected repelling rate R,” the repelling rate of each of the samples for correction above (ethanol alone or water alone being a solvent for the active ingredient) was used.
Repelling rate Q (%)={(Mx)−(Nx)}/(Mx)×100
Corrected repelling rate R (%)={Repelling rate of test sample−Repelling rate of sample for correction}/{100−Repelling rate of sample for correction}×100
The following were used as the test samples for Examples: 0.1% by weight per volume ethanol solutions of 3-methyl-2-butanol (e-4), carvacrol (x-1), isoeugenol (x-2), cinnamyl alcohol (x-3), diacetone alcohol (x-4), α-amylcinnamaldehyde (x-5), 3-methyl-2-butenal (x-6), valeraldehyde (x-7), ethyl cinnamate (x-8), methyl cinnamate (x-9), ethyl isovalerate (x-10), isoamyl formate (x-11), 5-ethyl-2-methylpyridine (x-12), 2-(3-phenylpropyl)pyridine (x-13), 2,6-dimethylpyridine (x-14), ß-ionone (x-15), 2-acetylthiazole (x-16), butylamine (x-17), and citronella oil (x-18), respectively; and a 0.1% by weight per volume aqueous solution of (3-amino-3-carboxypropyl)dimethylsulfonium chloride (x-19).

[1] = 0.1% by weight per volume solution
[2] = Test 2, honeybees, 0.1% by weight per volume solution, 5 mL (active ingredient 5 mg)
[3] = 2.0% by weight per volume solution
[4] = Test 1, honeybees, 2% by weight per volume solution, 5 mL sprayed (active ingredient 0.1 g)
[5] = Test 1, 2% by weight per volume solution

Row | Compound | Corrected repelling rate (%) Honeybees [1] [%] | other results
1 | O=Cc1ccco1 [b-3, furfural] | – | Corrected repelling rate R (%) (2 % strength): 93.6%
2 | CCCCCCCC(=O)OCCCC [y-36, butyl n-octanoate] | 52.0 | –
3 | Cc1cncc(C)n1 [y-60, 2,6-dimethylpyrazine] | 35.4 | –
4 | CC(=O)CC(C)(C)O [x-4, diacetone alcohol] | – | Corrected repelling rate R (%) [2]: 20.9%
5 | Cc1cnc(C)c(C)n1 [y-55, 2,3,5-trimethylpyrazine] | 80.6 | –
6 | C/C=C(\C)C=O [y-13, trans-2-methyl-2-butenal] | 67.4 | –
7 | CCCCOC(=O)CCC [y-35, butyl butyrate] | 61.7 | –
8 | CC(=O)c1ccccc1 [y-69, acetophenone] | – | Corrected repelling rate (%) Honeybees [3]: 98.9%
9 | CC(=O)c1ccc(C)cc1 [y-68, 4-methylacetophenone] | 84.3 | –
10 | CC(=O)OCCC(C)CCC=C(C)C (stereo not drawn) [y-30, citronellyl acetate] | 91.1 | –
11 | CC(C)CO.CC(C)CO [e-5, 2-methyl-1-propanol (isobutanol)] | 88.2 | –
12 | c1cnc2c(n1)CCCC2 [y-86, 5,6,7,8-tetrahydroquinoxaline] | – | Corrected repelling rate (%) Honeybees [3]: 73.2%
13 | CCc1nccnc1CC [y-56, 2,3-diethylpyrazine] | 57.0 | –
14 | CC(C)CCO [e-6, 3-methyl-1-butanol] | 65.4 | –
15 | CCCCCCCCCC(=O)OCC [y-38, ethyl decanoate] | 58.7 | –
16 | CCCCCCCCCCCCO [e-2, 1-dodecanol] | – | Corrected repelling rate R (%) [4]: 84.6%
17 | Sc1ccc2ccccc2c1 [y-88, 2-naphthalenethiol] | 74.6 | –
18 | CCCOC(=O)c1ccc(O)cc1 [y-16, propyl 4-hydroxybenzoate] | 89.7 | –
19 | CSCCCO [y-3, methionol] | – | Corrected repelling rate (%) Honeybees [3]: 84.7%
20 | CCCCSCCCC [y-94, butyl sulfide] | – | Corrected repelling rate (%) Honeybees [3]: 17.2%
21 | CN1CCCC1 [y-92, 1-methylpyrrolidine] | 25.9 | –
22 | CCCCCCCCO [e-1, 1-octanol] | – | Corrected repelling rate R (%) [4]: 58.3%
23 | CC1OCCC1=O (stereo not drawn) [p-6, 2-methyltetrahydrofuran-3-one, reference compound] | – | repelling effect / repelled behaviors of honeybees (in words) [5]: not observed at all; Corrected repelling rate R (%) [4]: <0%

Row | Compound | Corrected repelling rate (%) Honeybees [1] [%] | other results
24 | CC(C)CCOC(=O)CC(C)C [y-52, isoamyl isovalerate] | – | Corrected repelling rate (%) Honeybees [3]: 23.5%
25 | CC=Cc1ccc(O)c(OC)c1 [x-2, isoeugenol] | – | Corrected repelling rate R (%) [2]: 64.6%
26 | CCCCCCCC=O [y-12, n-octanal] | 96.3 | –
27 | Cn1cccc1 [p-5, 1-methylpyrrole, reference compound] | – | repelling effect / repelled behaviors of honeybees (in words) [5]: not observed at all; Corrected repelling rate R (%) [4]: <0%
28 | O=C1CCCO1 [y-64, γ-butyrolactone] | 27.5 | –
29 | Cc1cccc2nccnc12 [y-83, 5-methylquinoxaline] | 78.7 | –
30 | CCCCCCCC(=O)OCC [y-48, ethyl octanoate] | – | Corrected repelling rate (%) Honeybees [3]: 94.1%
31 | CC(=O)CC(C)=O [y-70, acetylacetone] | 21.5 | –
32 | CCc1nccnc1C [y-59, 2-ethyl-3-methylpyrazine] | 72.8 | –
33 | CCCCCCCCCCCCCCCCCC(=O)O [y-74, stearic acid] | 33.7 | –
34 | Cc1ccc(C=O)o1 [b-2, 5-methyl-2-furaldehyde] | – | Corrected repelling rate R (%) [4]: 55.3%
35 | CNc1ccccc1C(=O)OC [y-34, methyl N-methylanthranilate] | 78.6 | –
36 | CCCCCCCCCCCCCCCCCCC [a-4, nonadecane] | – | Corrected repelling rate R (%) [4]: 56.7%
37 | CCC(=O)O [p-8, propionic acid, reference compound] | – | Corrected repelling rate (%) Honeybees [3]: <0%
38 | C/C=C(\C)C(=O)OC/C=C(\C)CCC=C(C)C [y-31, geranyl tiglate] | 70.3 | –
39 | CCCCCCCCCCCCCCC(=O)OCC [y-40, ethyl pentadecanoate] | 77.6 | –
40 | CC(=O)c1nccs1 [x-16, 2-acetylthiazole] | – | Corrected repelling rate R (%) [2]: 61.7%
41 | CC(=O)/C=C/C1C(C)=CCCC1(C)C (stereo not drawn) [y-71, α-ionone] | 90.0 | –
42 | CC(=O)O [p-7, acetic acid, reference compound] | – | Corrected repelling rate R (%) [4]: <0%
43 | CC(=O)OC1CC(C)CCC1C(C)C (stereo not drawn) [y-26, menthyl acetate] | 76.4 | –
44 | CCCCCCCCCCCCCCCCC [a-3, heptadecane] | – | repelling effect / repelled behaviors of honeybees (in words) [5]: excellent repelling effect; Corrected repelling rate R (%) [4]: 28.2%
45 | CCOC(=O)Cc1ccccc1 [y-24, ethyl phenylacetate] | – | Corrected repelling rate (%) Honeybees [3]: 55.5%
46 | CC(=O)OCCC(C)C [y-53, isoamyl acetate] | – | Corrected repelling rate (%) Honeybees [3]: 23.0%

Row | Compound | Corrected repelling rate (%) Honeybees [1] [%] | other results
47 | CC(=O)OC(C)(C)C1CC=C(C)CC1 (stereo not drawn) [y-29, terpinyl acetate] | 81.2 | –
48 | CCC=O [y-11, propionaldehyde] | 64.0 | –
49 | CCC(=O)OCc1ccccc1 [y-23, benzyl propionate] | 26.0 | –
50 | O=C(O)c1ccnc2ccccc12 [y-82, 4-quinolinecarboxylic acid] | 55.5 | –
51 | CCCCCCCCCCCCCCCCCCO [e-3, 1-octadecanol] | – | Corrected repelling rate R (%) [4]: 16.2%
52 | CCCCCC(C=O)=Cc1ccccc1 [x-5, α-amylcinnamaldehyde] | – | Corrected repelling rate R (%) [2]: 77.8%
53 | CC(CC=O)CCCC(C)(C)O (stereo not drawn) [y-9, hydroxycitronellal] | – | Corrected repelling rate (%) Honeybees [3]: 92.8%
54 | Cc1cnccn1 [y-58, 2-methylpyrazine] | 55.0 | –
55 | CCCCCCCCCCCCCCCCCCCCC [p-2, heneicosane, reference compound] | – | repelling effect / repelled behaviors of honeybees (in words) [5]: not observed at all; Corrected repelling rate R (%) [4]: <0%
56 | CC(=O)c1ccc2ccccc2c1 [y-67, 2′-acetonaphtone] | 91.0 | –
57 | COC[C@@H]1CCCN1 [y-93, (S)-2-(methoxymethyl)pyrrolidine] | 66.9 | –
58 | CC(=O)c1ccc[nH]1 [d-1, 2-acetylpyrrole] | – | repelling effect / repelled behaviors of honeybees (in words) [5]: excellent repelling effect; Corrected repelling rate R (%) [4]: 37.0%
59 | Cc1cccc2c(C)cccc12 [y-89, 1,5-dimethylnaphthalene] | 88.8 | –
60 | CC(C)COC(=O)Cc1ccccc1 [y-21, isobutyl phenylacetate] | 80.5 | –
61 | CC(=O)OCc1ccccc1 [y-19, benzyl acetate] | 83.2 | –
62 | C=Cc1ccc(OC)cc1 [y-90, 4-methoxystyrene] | – | Corrected repelling rate (%) Honeybees [3]: 95.6%
63 | CCc1cccnc1 [y-62, 3-ethylpyridine] | – | Corrected repelling rate (%) Honeybees [3]: 58.3%
64 | CCCCCCCCCCCCCCCCCCCC [p-1, eicosane, reference compound] | – | repelling effect / repelled behaviors of honeybees (in words) [5]: not observed at all; Corrected repelling rate R (%) [4]: <0%
65 | c1ccc(Cn2cccc2)cc1 [d-2, 1-benzylpyrrole] | – | repelling effect / repelled behaviors of honeybees (in words) [5]: excellent repelling effect; Corrected repelling rate R (%) [4]: 68.3%
66 | (−)-menthyl succinate [y-32] | 57.7 | –
67 | c1ccc2scnc2c1 [y-78, benzothiazole] | 87.7 | –
68 | O=C(O)c1ccc(O)cc1 [y-77, 4-hydroxybenzoic acid] | 80.1 | –
